In PMC5218480 (PLoS ONE, 2017):

System: MV-4-11 cells
Assay: Gene expression microarray analysis (Affymetrix PrimeView) and GSEA
Type: cell-based, human
Set-up: RFU PODN (11730768_x_at) / Fold change /veh PODN (11730768_x_at) / RFU LINC00158 (11744669_a_at) / Fold change /veh LINC00158 (11744669_a_at) / RFU DUSP10 (11751237_a_at) / Fold change /veh DUSP10 (11751237_a_at) / RFU ID3 (11757404_x_at) / Fold change /veh ID3 (11757404_x_at) / RFU PLEKHG5 (11737974_s_at) / Fold change /veh PLEKHG5 (11737974_s_at) / RFU LRRC4B (11730491_at) / Fold change /veh LRRC4B (11730491_at) / RFU GIMAP4 (11747438_a_at) / Fold change /veh GIMAP4 (11747438_a_at) / RFU KRT8 (11758183_x_at) / Fold change /veh KRT8 (11758183_x_at) / RFU CNN1 (11734310_a_at) / Fold change /veh CNN1 (11734310_a_at) / RFU VPS37D (11726825_at) / Fold change /veh VPS37D (11726825_at) / RFU C10orf10 (11716522_x_at) / Fold change /veh C10orf10 (11716522_x_at) / RFU KIR2DL2 /// KIR2DL4 /// KIR2DL5A /// KIR2DL5B /// KIR2DS1 /// KIR2DS2 /// KIR2DS3 /// KIR2DS4 /// KIR3DL3 /// KIR3DL3 /// KIR3DS1 (11738374_at) / Fold change /veh KIR2DL2 /// KIR2DL4 /// KIR2DL5A /// KIR2DL5B /// KIR2DS1 /// KIR2DS2 /// KIR2DS3 /// KIR2DS4 /// KIR3DL3 /// KIR3DL3 /// KIR3DS1 (11738374_at) / RFU C1QL1 (11718748_at) / Fold change /veh C1QL1 (11718748_at) / RFU TMPRSS4 (11747572_a_at) / Fold change /veh TMPRSS4 (11747572_a_at) / RFU HAMP (11756126_x_at) / Fold change /veh HAMP (11756126_x_at) / RFU RNFT2 (11725882_a_at) / Fold change /veh RNFT2 (11725882_a_at) / RFU NR4A2 (11747474_a_at) / Fold change /veh NR4A2 (11747474_a_at) / RFU ABCC12 (11746883_a_at) / Fold change /veh ABCC12 (11746883_a_at) / RFU TMEM136 (11760407_x_at) / Fold change /veh TMEM136 (11760407_x_at) / RFU CLDN22 /// WWC2 (11732394_at) / Fold change /veh CLDN22 /// WWC2 (11732394_at) / RFU HLA-DPB1 (11760878_x_at) / Fold change /veh HLA-DPB1 (11760878_x_at) / RFU SPINT1 (11716480_a_at) / Fold change /veh SPINT1 (11716480_a_at) / RFU GAP43 (11754022_s_at) / Fold change /veh GAP43 (11754022_s_at) / RFU A4GNT (11735810_at) / Fold change /veh A4GNT (11735810_at) / RFU PRB3 (11715151_x_at) / Fold change /veh PRB3 (11715151_x_at) / RFU TUBB4B (11761932_at) / Fold change /veh TUBB4B (11761932_at) / RFU CAPN14 (11732068_a_at) / Fold change /veh CAPN14 (11732068_a_at) / RFU TMCC2 (11721928_a_at) / Fold change /veh TMCC2 (11721928_a_at) / RFU IRGQ (11745062_a_at) / Fold change /veh IRGQ (11745062_a_at) / RFU FAM174B (11720279_a_at) / Fold change /veh FAM174B (11720279_a_at) / RFU TMPRSS4 (11748680_a_at) / Fold change /veh TMPRSS4 (11748680_a_at) / RFU FAM212B (11763350_a_at) / Fold change /veh FAM212B (11763350_a_at) / RFU PLEKHG5 (11743358_a_at) / Fold change /veh PLEKHG5 (11743358_a_at) / RFU ZSCAN30 (11745921_a_at) / Fold change /veh ZSCAN30 (11745921_a_at) / RFU CMKLR1 (11741424_a_at) / Fold change /veh CMKLR1 (11741424_a_at) / RFU LOC101060620 /// MAPK8IP1 (11723275_at) / Fold change /veh LOC101060620 /// MAPK8IP1 (11723275_at) / RFU SPTSSB (11747773_x_at) / Fold change /veh SPTSSB (11747773_x_at) / RFU PRSS12 (11739890_at) / Fold change /veh PRSS12 (11739890_at) / RFU BIN1 (11741810_x_at) / Fold change /veh BIN1 (11741810_x_at) / RFU WNT11 (11732464_a_at) / Fold change /veh WNT11 (11732464_a_at) / RFU C10orf10 (11716521_a_at) / Fold change /veh C10orf10 (11716521_a_at) / RFU C5orf56 (11738089_at) / Fold change /veh C5orf56 (11738089_at) / RFU CYB561 (11721691_x_at) / Fold change /veh CYB561 (11721691_x_at) / RFU ANKRD19P (11752326_a_at) / Fold change /veh ANKRD19P (11752326_a_at) / RFU OR2T12 /// OR2T33 /// OR2T8 (11738714_s_at) / Fold change /veh OR2T12 /// OR2T33 /// OR2T8 (11738714_s_at) / RFU VCAN (11748164_a_at) / Fold change /veh VCAN (11748164_a_at) / RFU JSRP1 (11732532_at) / Fold change /veh JSRP1 (11732532_at) / RFU KRTAP10-11 (11738290_x_at) / Fold change /veh KRTAP10-11 (11738290_x_at) / RFU MYO3A (11730013_a_at) / Fold change /veh MYO3A (11730013_a_at) / RFU EBF3 (11725865_a_at) / Fold change /veh EBF3 (11725865_a_at) / RFU CAMK2N1 (11719241_x_at) / Fold change /veh CAMK2N1 (11719241_x_at) / RFU C5orf56 (11738088_a_at) / Fold change /veh C5orf56 (11738088_a_at) / RFU OLFML3 (11715873_a_at) / Fold change /veh OLFML3 (11715873_a_at) / RFU LOC100653217 /// NTM (11731650_a_at) / Fold change /veh LOC100653217 /// NTM (11731650_a_at) / RFU MAPK11 (11762145_a_at) / Fold change /veh MAPK11 (11762145_a_at) / RFU FIZ1 (11724087_x_at) / Fold change /veh FIZ1 (11724087_x_at) / RFU OASL (11726364_x_at) / Fold change /veh OASL (11726364_x_at) / RFU SOX15 (11748057_x_at) / Fold change /veh SOX15 (11748057_x_at) / RFU CD79A (11719716_a_at) / Fold change /veh CD79A (11719716_a_at) / RFU HIST1H1D (11736915_at) / Fold change /veh HIST1H1D (11736915_at) / RFU CASKIN2 (11723855_a_at) / Fold change /veh CASKIN2 (11723855_a_at) / RFU LOC730098 (11760151_x_at) / Fold change /veh LOC730098 (11760151_x_at) / RFU OR4N2 (11742367_at) / Fold change /veh OR4N2 (11742367_at) / RFU PRRT2 (11749266_a_at) / Fold change /veh PRRT2 (11749266_a_at) / RFU SNX32 (11753110_a_at) / Fold change /veh SNX32 (11753110_a_at) / RFU CDHR5 (11726645_a_at) / Fold change /veh CDHR5 (11726645_a_at) / RFU RCAN1 (11760418_a_at) / Fold change /veh RCAN1 (11760418_a_at) / RFU FAM167A (11723789_a_at) / Fold change /veh FAM167A (11723789_a_at) / RFU FAM26E (11764081_at) / Fold change /veh FAM26E (11764081_at) / RFU ISYNA1 (11749810_s_at) / Fold change /veh ISYNA1 (11749810_s_at) / RFU ACY1 (11761880_at) / Fold change /veh ACY1 (11761880_at) / RFU 11764098_at / Fold change /veh 11764098_at / RFU SAMD14 (11745864_x_at) / Fold change /veh SAMD14 (11745864_x_at) / RFU NPB (11741838_a_at) / Fold change /veh NPB (11741838_a_at) / RFU TMPRSS6 (11731388_a_at) / Fold change /veh TMPRSS6 (11731388_a_at) / RFU KRTAP10-2 (11738614_at) / Fold change /veh KRTAP10-2 (11738614_at) / RFU ARHGAP8 /// PRR5-ARHGAP8 (11727945_x_at) / Fold change /veh ARHGAP8 /// PRR5-ARHGAP8 (11727945_x_at) / RFU KRTAP5-7 /// NADSYN1 (11734609_at) / Fold change /veh KRTAP5-7 /// NADSYN1 (11734609_at) / RFU RASL12 (11751679_a_at) / Fold change /veh RASL12 (11751679_a_at) / RFU CDKN2B (11736163_a_at) / Fold change /veh CDKN2B (11736163_a_at) / RFU PRF1 (11729649_at) / Fold change /veh PRF1 (11729649_at) / RFU, ZNF638 /// ZNF638-IT1 / Fold change vs veh, ZNF638 /// ZNF638-IT1 / RFU, PANK3 / Fold change vs veh, PANK3 / RFU, SH3YL1 / Fold change vs veh, SH3YL1 / RFU, ZEB2 / Fold change vs veh, ZEB2 / RFU, NRIP1 / Fold change vs veh, NRIP1 / RFU, PTTG1IP / Fold change vs veh, PTTG1IP / RFU, CAPN2 / Fold change vs veh, CAPN2 / RFU, MED14 / Fold change vs veh, MED14 / RFU, SNORA58 / Fold change vs veh, SNORA58 / RFU, C1orf63 / Fold change vs veh, C1orf63 / RFU, LRRFIP1 / Fold change vs veh, LRRFIP1 / RFU, NDUFAF7 / Fold change vs veh, NDUFAF7 / RFU, SLC12A2 / Fold change vs veh, SLC12A2 / RFU, IBTK / Fold change vs veh, IBTK / RFU, ESF1 / Fold change vs veh, ESF1 / Fold change vs veh, TMEM50B / RFU, TAOK1 / Fold change vs veh, TAOK1 / RFU, ACBD3 / Fold change vs veh, ACBD3 / RFU, TMA16 / Fold change vs veh, TMA16 / RFU, RWDD3 / Fold change vs veh, RWDD3 / RFU, BCAT1 / Fold change vs veh, BCAT1 / RFU, EDEM3 / Fold change vs veh, EDEM3 / RFU, TMEM33 / Fold change vs veh, TMEM33 / RFU, WDR75 / Fold change vs veh, WDR75 / RFU, AHCTF1 / Fold change vs veh, AHCTF1 / RFU, TFRC / Fold change vs veh, TFRC / RFU, ZDHHC17 / Fold change vs veh, ZDHHC17 / RFU, NOM1 / Fold change vs veh, NOM1 / RFU, ARL8B / Fold change vs veh, ARL8B / RFU, ZBTB11 / Fold change vs veh, ZBTB11 / RFU, TAMM41 / Fold change vs veh, TAMM41 / RFU, KIAA1704 /// LOC100996395 / Fold change vs veh, KIAA1704 /// LOC100996395 / RFU, ING1 / Fold change vs veh, ING1 / RFU, TRMT61B / Fold change vs veh, TRMT61B / RFU, FUBP3 / Fold change vs veh, FUBP3 / RFU, TP53 / Fold change vs veh, TP53 / RFU, TNKS2 / Fold change vs veh, TNKS2 / RFU, ZFP14 / Fold change vs veh, ZFP14 / RFU, ACTR2 / Fold change vs veh, ACTR2 / RFU, PPP3R1 / Fold change vs veh, PPP3R1 / RFU, PIK3R1 / Fold change vs veh, PIK3R1 / RFU, HNRNPA1 / Fold change vs veh, HNRNPA1 / RFU, RNF170 / Fold change vs veh, RNF170 / RFU, ZNF28 / Fold change vs veh, ZNF28 / RFU, RNGTT / Fold change vs veh, RNGTT / RFU, OGT / Fold change vs veh, OGT / RFU, BRD1 / Fold change vs veh, BRD1 / RFU, MARS / Fold change vs veh, MARS / RFU, ZNF655 / Fold change vs veh, ZNF655 / RFU, FAHD1 / Fold change vs veh, FAHD1 / RFU, BDP1 / Fold change vs veh, BDP1 / RFU, LRRCC1 / Fold change vs veh, LRRCC1 / RFU, ARID1A / Fold change vs veh, ARID1A / RFU, ZNF146 / Fold change vs veh, ZNF146 / RFU, ZNF330 / Fold change vs veh, ZNF330 / RFU, GPN3 / Fold change vs veh, GPN3 / RFU, C9orf123 / Fold change vs veh, C9orf123 / RFU, N4BP2L2 / Fold change vs veh, N4BP2L2 / RFU, ARFIP1 / Fold change vs veh, ARFIP1 / RFU, FAM179B / Fold change vs veh, FAM179B / RFU, BCL10 / Fold change vs veh, BCL10 / RFU, UHRF1BP1L / Fold change vs veh, UHRF1BP1L / RFU, BET1 / Fold change vs veh, BET1 / RFU, CNOT2 / Fold change vs veh, CNOT2 / RFU, ZNF268 / Fold change vs veh, ZNF268 / Fold change vs veh, ZNF507 / RFU, DGCR2 / Fold change vs veh, DGCR2 / RFU, WDSUB1 / Fold change vs veh, WDSUB1 / Fold change vs veh, HSP90B1 /// MIR3652 / RFU, ADSS / Fold change vs veh, ADSS / RFU, GK / Fold change vs veh, GK / RFU, ZNF148 / Fold change vs veh, ZNF148 / RFU, TAF9 / Fold change vs veh, TAF9 / RFU, SLC1A5 / Fold change vs veh, SLC1A5 / RFU, SLMO2 / Fold change vs veh, SLMO2 / RFU, ABCC4 / Fold change vs veh, ABCC4 / RFU, LOC101060439 /// RAP1B / Fold change vs veh, LOC101060439 /// RAP1B / RFU, RFX7 / Fold change vs veh, RFX7 / RFU, GTPBP10 / Fold change vs veh, GTPBP10 / RFU, CNEP1R1 / Fold change vs veh, CNEP1R1 / RFU, BIVM-ERCC5 /// ERCC5 / Fold change vs veh, BIVM-ERCC5 /// ERCC5 / RFU, ILF3 / Fold change vs veh, ILF3 / RFU 11762660_at / Fold change /veh 11762660_at / RFU VCAN (11757783_s_at) / Fold change /veh VCAN (11757783_s_at) / RFU DDX43 (11728927_at) / Fold change /veh DDX43 (11728927_at) / RFU KRT8 (11758188_x_at) / Fold change /veh KRT8 (11758188_x_at) / RFU NKD1 (11759106_at) / Fold change /veh NKD1 (11759106_at) / RFU SRD5A1 (11742802_a_at) / Fold change /veh SRD5A1 (11742802_a_at) / RFU TPSAB1 /// TPSB2 (11721975_s_at) / Fold change /veh TPSAB1 /// TPSB2 (11721975_s_at) / RFU GSTM3 (11746129_a_at) / Fold change /veh GSTM3 (11746129_a_at) / RFU IL23R (11737362_x_at) / Fold change /veh IL23R (11737362_x_at) / RFU TMEM51 (11727254_a_at) / Fold change /veh TMEM51 (11727254_a_at) / RFU PIWIL2 (11732686_x_at) / Fold change /veh PIWIL2 (11732686_x_at) / RFU ORM1 (11744905_x_at) / Fold change /veh ORM1 (11744905_x_at) / RFU CCDC152 (11743942_at) / Fold change /veh CCDC152 (11743942_at) / RFU ECM1 (11717891_a_at) / Fold change /veh ECM1 (11717891_a_at) / RFU IL23R (11748794_a_at) / Fold change /veh IL23R (11748794_a_at) / RFU TNFAIP8L3 (11732012_x_at) / Fold change /veh TNFAIP8L3 (11732012_x_at) / RFU MBOAT4 (11741988_at) / Fold change /veh MBOAT4 (11741988_at) / RFU 11764193_at / Fold change /veh 11764193_at / RFU TMEM53 (11763286_at) / Fold change /veh TMEM53 (11763286_at) / RFU MAGEB2 (11727129_at) / Fold change /veh MAGEB2 (11727129_at) / RFU TMEM200A (11744735_a_at) / Fold change /veh TMEM200A (11744735_a_at) / RFU CCDC152 (11751479_a_at) / Fold change /veh CCDC152 (11751479_a_at) / RFU FAM211A (11726209_a_at) / Fold change /veh FAM211A (11726209_a_at) / RFU RGS16 (11746705_a_at) / Fold change /veh RGS16 (11746705_a_at) / RFU VCAN (11755009_s_at) / Fold change /veh VCAN (11755009_s_at) / RFU RHOB (11743442_s_at) / Fold change /veh RHOB (11743442_s_at) / RFU RGS16 (11720943_a_at) / Fold change /veh RGS16 (11720943_a_at) / RFU RGS16 (11720944_at) / Fold change /veh RGS16 (11720944_at) / RFU, VPS4B / Fold change vs veh, VPS4B / RFU, CREB1 / Fold change vs veh, CREB1 / RFU, DNAJC13 / Fold change vs veh, DNAJC13 / RFU, GNAQ / Fold change vs veh, GNAQ / RFU, CDK5R1 / Fold change vs veh, CDK5R1 / RFU, ZRANB3 / Fold change vs veh, ZRANB3 / RFU, CUL4A / Fold change vs veh, CUL4A / RFU, CCNY / Fold change vs veh, CCNY / RFU, UFL1 / Fold change vs veh, UFL1 / RFU, COG3 / Fold change vs veh, COG3 / RFU, DIAPH2 / Fold change vs veh, DIAPH2 / RFU, SKA2 / Fold change vs veh, SKA2 / RFU, AFF3 / Fold change vs veh, AFF3 / RFU, LMF1 / Fold change vs veh, LMF1 / RFU, IPO11 / Fold change vs veh, IPO11 / RFU, DFFB / Fold change vs veh, DFFB / RFU, FOXP1 / Fold change vs veh, FOXP1 / RFU, CARD8 / Fold change vs veh, CARD8 / RFU, STRN3 / Fold change vs veh, STRN3 / RFU, ADK / Fold change vs veh, ADK / RFU, RASSF2 / Fold change vs veh, RASSF2 / RFU, WIPF1 / Fold change vs veh, WIPF1 / RFU, LARP1B / Fold change vs veh, LARP1B / RFU, RASA1 / Fold change vs veh, RASA1 / RFU, RB1 / Fold change vs veh, RB1 / RFU, PPFIA1 / Fold change vs veh, PPFIA1 / RFU, MAT2A / Fold change vs veh, MAT2A / RFU, CCT5 / Fold change vs veh, CCT5 / RFU, WDR92 / Fold change vs veh, WDR92 / RFU, CUX1 / Fold change vs veh, CUX1 / RFU, TTC7A / Fold change vs veh, TTC7A / RFU, TMEM135 / Fold change vs veh, TMEM135 / RFU, DEPTOR / Fold change vs veh, DEPTOR / RFU, CPM / Fold change vs veh, CPM / RFU, DNAJB6 / Fold change vs veh, DNAJB6 / RFU, CACNA2D3 / Fold change vs veh, CACNA2D3 / RFU, DTX4 / Fold change vs veh, DTX4 / RFU, TFCP2 / Fold change vs veh, TFCP2 / RFU, GMCL1 /// GMCL1P1 / Fold change vs veh, GMCL1 /// GMCL1P1 / RFU, AEBP2 / Fold change vs veh, AEBP2 / RFU, SNHG1 /// SNORD22 /// SNORD25 /// SNORD26 /// SNORD27 /// SNORD28 /// SNORD29 /// SNORD31 / Fold change vs veh, SNHG1 /// SNORD22 /// SNORD25 /// SNORD26 /// SNORD27 /// SNORD28 /// SNORD29 /// SNORD31 / Fold change (Aza/veh), C12orf56 (ProbeSet 11735607_a_at) / Fold change (ACY-1035/veh), C12orf56 (ProbeSet 11735607_a_at) / Fold change (Aza/veh), FGFR1OP (ProbeSet 11751329_s_at) / Fold change (ACY-1035/veh), FGFR1OP (ProbeSet 11751329_s_at) / Fold change (Aza/veh), VPS36 (ProbeSet 11739960_a_at) / Fold change (ACY-1035/veh), VPS36 (ProbeSet 11739960_a_at) / RFU SYPL1 (11715823_x_at) / Fold change /veh SYPL1 (11715823_x_at) / RFU IGFBP7 (11715501_s_at) / Fold change /veh IGFBP7 (11715501_s_at) / RFU REEP3 (11722064_at) / Fold change /veh REEP3 (11722064_at) / RFU IGLL1 (11728026_x_at) / Fold change /veh IGLL1 (11728026_x_at): dose or concentration left out as unconfirmed
Details: ProbeSet 11716865_a_at; LIST B

Nc1ncn([C@@H]2O[C@H](CO)[C@@H](O)[C@H]2O)c(=O)n1 [azacitidine]
Fold change vs veh, SLC1A5: 0.87
